# Laboratory results taken from patent US20040259096A1, “Receptor capture assay” (priority 2001, published 2004).
# Experiments:
# [1] = biological target: T1, AhR (Rattus norvegicus, UniProt P41738); assay: Receptor capture assay, real-time PCR, AhR derived from rat; format: biochemical
# T1 construct: The cytosol containing AhR heteromers was stored at; from tissue; host or cells: liver cytosol of Long-Evans rats
# Protocol: A set of calibrators consisting of 5000, 2500, 1250, 626, 313, 156, and 78 parts per trillion (ppt or pg/ml) 2,3,7,8-tetrachlorodibenzo-p-dioxin (TCDD) was prepared in methanol. In addition to TCDD a set of calibrators for AhR agonist, beta-naphthoflavone (BNF) was prepared and analyzed in the assay. Separately, 25 ul of 1:50,000 dilution of 10 uM stock nucleic acid-tracer was added per 1 ml of rodent cytosol, which was the source of AhR, and was aliquoted into glass tubes. The standards were diluted 1:20 into 50-100 ul of rodent cytosol, and incubated for 1-2 hr at room temperature to 37° C. Following incubation, 40 to 100 ul of the reaction was transferred to each well of the antibody-coated Capture Strip and incubated on a shaking platform for 30 min to 1 hr at room temperature. The Capture Strips were washed 5 times with Wash Buffer B, and aspirated; optionally soaking wells for 30 sec-5 min with wash buffer during each cycle. Taqman® Universal PCR Master Mix, primers, and Taqman® probe (Applied Biosystems, Calif.) were added, and adhesive cover applied. PCR was performed and analyzed using an ABI PRISM® 7700, using default settings: 50° C., 2 min, 95° C. […] A threshold cycle (Ct) was determined for each reaction The Ct represents the PCR cycle at which an increase in reporter fluorescence above baseline signal can first be detected.
# [2] = tested on: Ah receptor; assay: Receptor capture assay employing ARNT-GST fusion protein, anti-GST plate, PCR and gel densitometry; format: biochemical, murine; details: B-naphthoflavone 10 μM; duplicate samples; 30 cycles PCR; DMSO control 363
# Protocol: The receptor was activated in the presence of ARNT/GST binding partner and test sample. Sufficient ARNT/GST was added to displace the endogenous ARNT present in the Ah receptor preparation. In a tube, 98 μl Hepa1c1c7 (0.8 mg) extract was incubated with 1 μl GST-ARNT (50 ng) and 1 μl sample (e.g. BNF or vehicle alone) at 30° C. for 1 hour. Non-specific binding of the nucleic acid-tracer was reduced by preincubating the reaction mix with NaCl to 60 mM and 2 μg salmon sperm DNA for 15 min. at room temperature. Nucleic acid-tracer was added to 50 fmol and the reaction was incubated 20 min at room temperature. The complex was captured on a commercially available 96-well anti-GST plate (Perkin Elmer Life Sciences, Boston, Mass.). The anti-GST coated microtiter plate was washed once with Wallac Wash Buffer prior to addition of 50 μl receptor-DNA reaction. […]
# Samples were analyzed by agarose gel electrophoresis with visualization of ethidium-bromide stained DNA bands under UV radiation Typically, 20 μl of each sample was analyzed in the 4% gels, yielding bright fluorescent bands from the positive controls. […] Negatives were scanned using an HPscanjet 2200c and DNA bands were quantified using ScionImage (Scion Corporation) software.
# Duplicate samples were analyzed with the protocol described above with B-naphthoflavone (10 μM) or vehicle (DMSO) following 30 cycles PCR. […]
# T1 sequence (P41738 10-853): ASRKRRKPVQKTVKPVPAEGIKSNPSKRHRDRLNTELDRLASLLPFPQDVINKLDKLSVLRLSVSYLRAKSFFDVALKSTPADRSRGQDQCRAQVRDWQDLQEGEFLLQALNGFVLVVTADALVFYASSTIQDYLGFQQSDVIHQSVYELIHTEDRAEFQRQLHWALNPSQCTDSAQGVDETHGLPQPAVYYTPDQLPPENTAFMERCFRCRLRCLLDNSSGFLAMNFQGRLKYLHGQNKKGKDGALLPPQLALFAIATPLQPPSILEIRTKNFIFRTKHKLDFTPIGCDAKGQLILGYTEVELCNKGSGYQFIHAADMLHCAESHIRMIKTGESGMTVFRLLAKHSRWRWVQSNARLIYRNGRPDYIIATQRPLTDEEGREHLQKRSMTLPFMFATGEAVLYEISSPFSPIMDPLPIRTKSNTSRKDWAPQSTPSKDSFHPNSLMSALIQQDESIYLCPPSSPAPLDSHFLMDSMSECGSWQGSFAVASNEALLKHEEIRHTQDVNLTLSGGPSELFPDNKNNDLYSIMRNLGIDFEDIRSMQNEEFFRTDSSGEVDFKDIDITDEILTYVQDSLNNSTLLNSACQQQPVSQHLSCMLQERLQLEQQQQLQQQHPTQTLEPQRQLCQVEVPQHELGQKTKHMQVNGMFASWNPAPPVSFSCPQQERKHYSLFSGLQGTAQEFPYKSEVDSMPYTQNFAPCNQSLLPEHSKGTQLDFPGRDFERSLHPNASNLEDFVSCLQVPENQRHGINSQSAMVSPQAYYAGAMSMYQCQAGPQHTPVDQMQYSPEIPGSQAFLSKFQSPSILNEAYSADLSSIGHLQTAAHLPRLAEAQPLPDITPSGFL
# T1 sequence (P41739 whole entry partner): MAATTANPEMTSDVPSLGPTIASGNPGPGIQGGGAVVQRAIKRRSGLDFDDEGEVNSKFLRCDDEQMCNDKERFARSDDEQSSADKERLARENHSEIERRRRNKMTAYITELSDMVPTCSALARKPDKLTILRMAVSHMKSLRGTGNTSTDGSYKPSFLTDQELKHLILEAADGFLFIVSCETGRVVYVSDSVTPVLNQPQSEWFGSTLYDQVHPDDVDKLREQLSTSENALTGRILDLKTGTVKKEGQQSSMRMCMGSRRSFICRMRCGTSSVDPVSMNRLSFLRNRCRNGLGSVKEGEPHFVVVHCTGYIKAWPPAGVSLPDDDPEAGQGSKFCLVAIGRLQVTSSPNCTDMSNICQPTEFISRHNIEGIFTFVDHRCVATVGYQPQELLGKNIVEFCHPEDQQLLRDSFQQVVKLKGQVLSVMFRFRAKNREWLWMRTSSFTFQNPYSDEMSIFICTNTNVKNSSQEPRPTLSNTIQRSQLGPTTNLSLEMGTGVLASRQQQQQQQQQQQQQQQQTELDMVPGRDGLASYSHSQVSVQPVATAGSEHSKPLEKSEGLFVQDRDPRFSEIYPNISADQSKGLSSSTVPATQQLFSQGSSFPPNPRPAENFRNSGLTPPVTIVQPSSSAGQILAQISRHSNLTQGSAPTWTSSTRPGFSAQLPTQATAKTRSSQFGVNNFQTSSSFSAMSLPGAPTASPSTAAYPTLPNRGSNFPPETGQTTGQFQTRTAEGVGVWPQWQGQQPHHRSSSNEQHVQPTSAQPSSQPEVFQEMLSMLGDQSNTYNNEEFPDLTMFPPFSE
smiles,measurement,setting,value
"Clc1cc2c(cc1Cl)Oc1cc(Cl)c(Cl)cc1O2 [TCDD, 2,3,7,8-tetrachlorodibenzo-p-dioxin]",slope of dose-response curve,[1],−1.208
same,EC50 of dose-response curve,[1]; pg of TCDD in the assay,2.8 pg
"O=c1cc(-c2ccccc2)oc2ccc3ccccc3c12 [BNF, beta-naphthoflavone]",average value of quantified DNA bands,[2],3013
